Literature values as cited in US20150258192A1, “COMPOSITIONS AND METHODS FOR PREVENTING OR TREATING CHRONIC LUNG ALLOGRAFT DYSFUNCTION (CLAD) AND IDIOPATHIC PULMONARY FIBROSIS (IPF)” (priority 2014, published 2015).

Tests used:
PKC = details: 1 μM; cited from earlier work
[1] = system: Ca^2+/calmodulin-dependent protein kinase II (CaMKII); details: cited from earlier work
CaMKIV = CaMKIV (Homo sapiens, UniProt Q16566); details: 1 μM; cited from earlier work
PKA = details: 1 μM; cited from earlier work

Sequence of CaMKIV (Q16566 whole entry, species assumed): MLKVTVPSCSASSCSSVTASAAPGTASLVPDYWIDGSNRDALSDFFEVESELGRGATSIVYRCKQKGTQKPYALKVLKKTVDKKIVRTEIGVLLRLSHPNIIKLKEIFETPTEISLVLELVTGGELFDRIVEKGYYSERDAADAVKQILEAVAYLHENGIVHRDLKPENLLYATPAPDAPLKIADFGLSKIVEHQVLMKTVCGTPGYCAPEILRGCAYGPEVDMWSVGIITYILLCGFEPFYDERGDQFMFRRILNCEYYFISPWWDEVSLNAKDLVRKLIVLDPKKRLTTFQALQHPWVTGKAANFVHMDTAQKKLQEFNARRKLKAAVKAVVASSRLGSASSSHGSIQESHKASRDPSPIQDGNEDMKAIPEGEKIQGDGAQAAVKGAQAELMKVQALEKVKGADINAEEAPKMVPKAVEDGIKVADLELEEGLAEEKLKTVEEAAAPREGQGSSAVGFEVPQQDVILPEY

In the case of “autocamtide-2 related inhibitory peptide [AIP]”, the PKC activity (PKC) is listed as “not affected”, the CaMKII activity ([1]; 1 μM) is listed as “inhibited completely” and the IC50 [1] is listed as 100 nM. For the same substance, the CaMKIV activity (CaMKIV) was “not affected” and the PKA activity (PKA) was “not affected”.
